We go through 18 compounds from ChEMBL document CHEMBL5241090, “A comprehensive overview of β-carbolines and its derivatives as anticancer agents” (Eur J Med Chem, 2021).

The test system of one experiment is L1210. Kind of experiment: Cytotoxicity against mouse L1210 cells. Type of experiment: functional, cell-based.
A further experiment relates to MOLT-4F. Kind of experiment: Cytotoxicity against human MOLT-4F cells. Type of experiment: functional, cell-based.
For the next experiment, the system named is MT4. The experiment can be described thus: Cytotoxicity against human MT4 cells. Type of experiment: functional, cell-based.
The target in experiment [1] is Serine/threonine-protein kinase haspin (Homo sapiens, UniProt Q8TF76). Kind of experiment: Inhibition of HASPIN (unknown origin).
Chain of Serine/threonine-protein kinase haspin (Q8TF76 whole entry): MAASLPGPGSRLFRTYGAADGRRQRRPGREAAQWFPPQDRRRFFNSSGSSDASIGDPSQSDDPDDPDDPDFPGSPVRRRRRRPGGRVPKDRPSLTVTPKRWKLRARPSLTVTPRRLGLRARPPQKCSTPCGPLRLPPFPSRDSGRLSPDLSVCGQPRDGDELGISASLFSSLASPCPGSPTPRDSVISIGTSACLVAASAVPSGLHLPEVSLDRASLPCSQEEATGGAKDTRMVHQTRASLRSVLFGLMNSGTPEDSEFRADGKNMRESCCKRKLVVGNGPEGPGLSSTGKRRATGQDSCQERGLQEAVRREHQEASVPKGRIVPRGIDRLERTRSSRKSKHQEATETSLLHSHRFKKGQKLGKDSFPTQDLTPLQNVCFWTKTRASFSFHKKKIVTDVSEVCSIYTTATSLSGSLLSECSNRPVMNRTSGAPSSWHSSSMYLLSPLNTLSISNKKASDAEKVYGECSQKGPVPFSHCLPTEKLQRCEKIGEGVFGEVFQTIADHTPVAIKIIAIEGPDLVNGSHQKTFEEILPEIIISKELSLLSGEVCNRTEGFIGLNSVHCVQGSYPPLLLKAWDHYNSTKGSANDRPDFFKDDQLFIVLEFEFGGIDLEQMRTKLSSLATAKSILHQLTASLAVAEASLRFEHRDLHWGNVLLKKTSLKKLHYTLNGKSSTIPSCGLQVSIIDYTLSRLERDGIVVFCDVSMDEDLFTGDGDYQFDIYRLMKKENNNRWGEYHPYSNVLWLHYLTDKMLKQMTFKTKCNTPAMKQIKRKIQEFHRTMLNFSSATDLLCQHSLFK
The subject of another experiment is B16. The experiment can be described thus: Cytotoxicity against mouse B16 cells by MTT assay. Type of experiment: functional, cell-based.
Experiment [2] concerns HT-29. The experiment can be described thus: Cytotoxicity against human HT-29 cells by MTT assay. Type of experiment: functional, cell-based.
The test system of experiment [3] is HeLa. Kind of experiment: Cytotoxicity against human HeLa cells by MTT assay. Type of experiment: functional, cell-based. On the technique in general: Tetrazolium assays rely on reduction of a dye to a coloured formazan, in cell work by metabolically active cells.
The test system of experiment [4] is PC-3. The experiment can be described thus: Cytotoxicity against human PC-3 cells by MTT assay. Type of experiment: functional, cell-based.
The test system of another experiment is HL-60(TB). Kind of experiment: Antiproliferative activity against human HL-60(TB) cells. Type of experiment: functional, cell-based.
In another experiment the test system is K562. The experiment can be described thus: Cytotoxicity against human K562 cells. Type of experiment: functional, cell-based.
A further experiment has as its system Breast carcinoma cell. Kind of experiment: Cytotoxicity against human Breast cancer cell line measured after 72 hrs by MTT assay. Type of experiment: functional, cell-based.
Experiment [5] is described as follows: Cytotoxicity against human Pancreatic cancer cell measured after 72 hrs by MTT assay. Type of experiment: functional, cell-based.
The test system of experiment [6] is HeLa. The experiment can be described thus: Cytotoxicity against human HeLa cells measured after 48 hrs by MTT assay. Type of experiment: functional, cell-based.
For experiment [7], the system named is HT-29. The experiment can be described thus: Cytotoxicity against human HT-29 cells measured after 48 hrs by MTT assay. Type of experiment: functional, cell-based. Conditions: HT-29, 48 h.
The next experiment has as its system HGC-27. Kind of experiment: Cytotoxicity against human HGC-27 cells measured after 48 hrs by MTT assay. Type of experiment: functional, cell-based. Conditions: HGC-27, 48 h.
For experiment [8], the system named is MCF7. The experiment can be described thus: Cytotoxicity against human MCF7 cells measured after 48 hrs by MTT assay. Type of experiment: functional, cell-based. Conditions: MCF7, 48 h.
The subject of experiment [9] is PC-3. Kind of experiment: Cytotoxicity against human PC-3 cells measured after 48 hrs by MTT assay. Type of experiment: functional, cell-based. Conditions: PC-3, 48 h.
Experiment [10] relates to OVCAR-3. The experiment can be described thus: Cytotoxicity against human OVCAR-3 cells by MTT assay. Type of experiment: functional, cell-based.
In a further experiment the test system is SW480. The experiment can be described thus: Cytotoxicity against human SW480 cells by MTT assay. Type of experiment: functional, cell-based.
In another experiment the test system is SMMC-7721. Kind of experiment: Cytotoxicity against human SMMC-7721 cells measured after 48 hrs by MTT assay. Type of experiment: functional, cell-based. Conditions: SMMC-7721, 48 h.
For experiment [11], the system named is HepG2. Kind of experiment: Cytotoxicity against human HepG2 cells measured after 48 hrs by MTT assay. Conditions: HepG2, 48 h. Type of experiment: functional, cell-based.
The test system of another experiment is EJ. The experiment can be described thus: Cytotoxicity against human EJ cells measured after 48 hrs by MTT assay. Type of experiment: functional, cell-based.
In experiment [12] the test system is HCT-116. Kind of experiment: Cytotoxicity against human HCT-116 cells measured after 48 hrs by MTT assay. Type of experiment: functional, cell-based. Conditions: HCT-116, 48 h.
The test system of experiment [13] is NCI-H460. The experiment can be described thus: Cytotoxicity against human NCI-H460 cells measured after 48 hrs by MTT assay. The conditions noted are these: NCI-H460, 48 h. Type of experiment: functional, cell-based.
For experiment [14], the target named is Cyclin-dependent kinase 2/cyclin A (Homo sapiens, UniProt P24941). The experiment can be described thus: Inhibition of CDK2/Cyclin A (unknown origin). Type of experiment: protein-complex assay.
A further experiment concerns COLO 205. The experiment can be described thus: Antiproliferative activity against human COLO 205 cells. Type of experiment: functional, cell-based.
In experiment [15] the test system is HCT-116. The experiment can be described thus: Cytotoxicity against human HCT-116 cells. Type of experiment: functional, cell-based.
A further experiment concerns SR. Kind of experiment: Cytotoxicity against human SR cells. Type of experiment: functional, cell-based.
The test system of another experiment is RPMI-8226. The experiment can be described thus: Cytotoxicity against human RPMI-8226 cells. Type of experiment: functional, cell-based.
Experiment [16] relates to NCI-H460. The experiment can be described thus: Antitumor activity against human NCI-H460 cells assessed as inhibition of cell growth measured after 48 hrs by spectrophotometric analysis. Type of experiment: functional, cell-based. The conditions noted are these: NCI-H460, 48 h.
Experiment [17] has as its system HT-29. Kind of experiment: Antitumor activity against human HT-29 cells assessed as inhibition of cell growth measured after 48 hrs by spectrophotometric analysis. Type of experiment: functional, cell-based. Conditions: HT-29, 48 h.
The test system of experiment [18] is PC-3. Kind of experiment: Antitumor activity against human PC-3 cells assessed as inhibition of cell growth measured after 48 hrs by spectrophotometric analysis. Type of experiment: functional, cell-based. Conditions: PC-3, 48 h.
The test system of experiment [19] is MCF7. Kind of experiment: Antitumor activity against human MCF7 cells assessed as inhibition of cell growth measured after 48 hrs by spectrophotometric analysis. Type of experiment: functional, cell-based. Conditions: MCF7, 48 h.
The next experiment deals with 786-0. The experiment can be described thus: Antitumor activity against human 786-0 cells assessed as inhibition of cell growth measured after 48 hrs by spectrophotometric analysis. Type of experiment: functional, cell-based. The conditions noted are these: 786-0, 48 h.
The next experiment has as its system U-251. The experiment can be described thus: Antitumor activity against human U-251 cells assessed as inhibition of cell growth measured after 48 hrs by spectrophotometric analysis. Type of experiment: functional, cell-based. Conditions: U-251, 48 h.
The next experiment concerns NCI/ADR-RES. Kind of experiment: Antitumor activity against human NCI-ADR-RES cells assessed as inhibition of cell growth measured after 48 hrs by spectrophotometric analysis. Type of experiment: functional, cell-based.
Experiment [20] relates to OVCAR-3. The experiment can be described thus: Antitumor activity against human OVCAR-3 cells assessed as inhibition of cell growth measured after 48 hrs by spectrophotometric analysis. Type of experiment: functional, cell-based. The conditions noted are these: OVCAR-3, 48 h.
The next experiment concerns HaCaT. Kind of experiment: Antitumor activity against human HaCaT cells assessed as inhibition of cell growth measured after 48 hrs by spectrophotometric analysis. Type of experiment: functional, cell-based.
For a further experiment, the system named is RAW264.7. Kind of experiment: Cytotoxicity against mouse RAW264.7 cells. Type of experiment: functional, cell-based.
Experiment [21] concerns HeLa. The experiment can be described thus: Cytotoxicity against human HeLa cells measured after 24 hrs by MTT assay. Type of experiment: functional, cell-based.
The test system of experiment [22] is HepG2. Kind of experiment: Cytotoxicity against human HepG2 cells measured after 24 hrs by MTT assay. Type of experiment: functional, cell-based. Conditions: HepG2, 24 h.
Another experiment has as its system HL-60. The experiment can be described thus: Cytotoxicity against human HL-60 cells. Type of experiment: functional, cell-based. The conditions noted are these: Homo sapiens, HL-60; read-out: IC50.
The next experiment has as its system A549. The experiment can be described thus: Cytotoxicity against human A549 cells. Type of experiment: functional, cell-based.
Experiment [23] has as its system NCI-H460. Kind of experiment: Cytotoxicity against human NCI-H460 cells. Type of experiment: functional, cell-based.
The subject of another experiment is BT-474. Kind of experiment: Cytotoxicity against human BT-474 cells. Type of experiment: functional, cell-based.
Another experiment has as its system MOLT-4. Kind of experiment: Cytotoxicity against human MOLT-4 cells. Type of experiment: functional, cell-based.
The test system of the next experiment is THP-1. Kind of experiment: Cytotoxicity against human THP-1 cells. Type of experiment: functional, cell-based.
Experiment [24] addresses Serine/threonine-protein kinase PLK1 (Homo sapiens, UniProt P53350). The experiment can be described thus: Inhibition of PLK1 (unknown origin).
Experiment [25] relates to MCF7. Kind of experiment: Cytotoxicity against human MCF7 cells. Type of experiment: functional, cell-based.
The subject of the next experiment is HCT-15. The experiment can be described thus: Cytotoxicity against human HCT-15 cells. Type of experiment: functional, cell-based.

pIC50: −log10 of the molar value. Converted amounts (≈) assume the structure as drawn.

The term IC50 denotes the midpoint of a concentration-inhibition curve. Read a high IC50 as weaker potency in that assay. A word on the pIC50: it is −log10 of the IC50, conventionally taken in molar units.

Chain of Serine/threonine-protein kinase PLK1 (P53350 whole entry): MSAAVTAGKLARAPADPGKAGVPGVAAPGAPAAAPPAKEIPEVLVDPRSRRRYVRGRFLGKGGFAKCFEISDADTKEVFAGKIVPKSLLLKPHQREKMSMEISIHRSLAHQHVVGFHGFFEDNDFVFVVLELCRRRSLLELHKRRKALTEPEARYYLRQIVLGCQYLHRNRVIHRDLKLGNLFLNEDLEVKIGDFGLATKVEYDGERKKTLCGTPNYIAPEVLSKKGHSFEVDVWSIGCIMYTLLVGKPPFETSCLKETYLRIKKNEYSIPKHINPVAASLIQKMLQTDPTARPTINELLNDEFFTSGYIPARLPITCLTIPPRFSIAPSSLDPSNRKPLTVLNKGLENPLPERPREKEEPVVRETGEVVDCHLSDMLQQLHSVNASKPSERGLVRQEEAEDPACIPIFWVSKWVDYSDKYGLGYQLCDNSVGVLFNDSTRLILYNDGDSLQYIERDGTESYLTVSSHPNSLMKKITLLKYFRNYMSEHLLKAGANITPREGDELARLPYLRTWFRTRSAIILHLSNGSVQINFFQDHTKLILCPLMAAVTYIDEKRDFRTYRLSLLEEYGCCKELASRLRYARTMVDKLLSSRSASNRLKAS

With `COc1ccc2[nH]c3c(c2c1)CCN1OCSC[C@@H](N)C31` (stereo not given in full), the IC50 in the experiment with L1210 worked out at 5 ng/mL (≈ 0.0164 µM); with MOLT-4F, 6.2 ng/mL (≈ 0.0203 µM); with MT4, 5 ng/mL (≈ 0.0164 µM).

As for `Cc1nccc2c1[nH]c1cc(O)ccc12`, the pIC50 in [1] is 6.11.

Take `COc1cc(C(=O)/C=C/c2cc3c([nH]c4ccccc43)c(-c3cc(OC)c(OC)c(OC)c3)n2)cc(OC)c1OC`: the pIC50 in the experiment on B16, with HT-29 [2], in the experiment with HeLa [3] and in the experiment on PC-3 [4] was 5.28 in each case.

In the experiment on HL-60(TB), `COc1ccc2[nH]cc(-c3nccc4c3[nH]c3ccc(OC)cc34)c2c1` gave a pIC50 of 5.38.

On to `CC[C@H](C)[C@H](NC(=O)[C@H](Cc1c[nH]c2ccccc12)NC(=O)[C@H](Cc1c[nH]c2ccccc12)NC(=O)c1cc2c([nH]c3ccccc32)c(-c2ccc(O)c(OC)c2)n1)C(=O)OCc1ccccc1`, for which the pIC50 in the experiment on K562 was 4.92.

Turning to `COc1ccc2[nH]c3c(-c4cccc5ccccc45)nccc3c2c1`, the pIC50 was 6.41 in the experiment with Breast carcinoma cell and 6.42 in experiment [5].

As for `COc1cc(-c2nc(Cn3cc(CN4C(=O)c5ccccc5C4=O)nn3)cc3c2[nH]c2ccccc23)cc(OC)c1OC`, the pIC50 in the experiment on HeLa [6], in the experiment on HT-29 [7], in the experiment on HGC-27, in the experiment on MCF7 [8] and in the experiment with PC-3 [9] was 5.44 in each case.

For `CC(C)OC(=O)c1cc2c([nH]c3ccccc32)c(-c2cccc3ccccc23)n1`, the pIC50 with OVCAR-3 [10] is 5.12; in the experiment with SW480, 5.57; with PC-3 [4], 5.15.

Take `Cc1nc(C(=O)NCCCCNC(=O)c2ccccc2O)cc2c1[nH]c1ccccc12`: the pIC50 in the experiment on SMMC-7721, in the experiment with HepG2 [11], with EJ, in the experiment with HCT-116 [12] and in the experiment with NCI-H460 [13] was 5.16 in each case.

In turn, `CCCC[n+]1ccc2c3ccccc3n(Cc3ccccc3)c2c1-c1ccccc1Cl` had a negative-log IC50 (pIC50) in experiment [14] of 4.57.

In turn, `CC(C)(C)OC(=O)n1cc(C/C=C(\c2cn(C(=O)OC(C)(C)C)c3ccccc23)C2NCCc3c2[nH]c2ccccc32)c2ccccc21` (stereo not given) showed a pIC50 with COLO 205 of 5.57.

On to `O=C(Cn1c2ccccc2c2ccncc21)N/N=C/c1cccc2ccccc12`, for which the negative logarithm of the IC50 (pIC50) with HCT-116 [15] is 5.46; with SR, 5.20; in the experiment with RPMI-8226, 5.11.

As to `c1ccc(-c2nc(-c3nnc4snnn34)cc3c2[nH]c2ccccc23)cc1`, the pIC50 in the experiment with NCI-H460 [16], with HT-29 [17], in the experiment with PC-3 [18], in the experiment on MCF7 [19], in the experiment with 786-0 and with U-251 was 7.10 each time. For the same compound, the pIC50 in the experiment with NCI/ADR-RES, in the experiment with OVCAR-3 [20] and in the experiment on HaCaT was 7.10 throughout.

In the experiment on RAW264.7, `CN1CCN(C(=O)[C@H]2Cc3c([nH]c4ccccc34)CN2Cc2ccc3ccccc3c2Br)CC1` gave a pIC50 of 4.75.

As for `COC(=O)c1cc2c([nH]c3ccccc32)c(-c2cccc(OCc3cn(-c4ccc(Cl)c(Cl)c4)nn3)c2)n1`, the pIC50 in the experiment on HeLa [21] was 4.34; in the experiment with HepG2 [22] it was 4.49.

For the compound `COc1ccc(-c2nc(C(=O)Nc3nc4ccc([N+](=O)[O-])cc4s3)cc3c2[nH]c2ccccc23)cc1`, the pIC50 with HL-60, in the experiment with A549, with HCT-116 [15], with NCI-H460 [23], in the experiment on BT-474 and in the experiment on MOLT-4 was 5.84 in each case. Besides, the negative-log IC50 (pIC50) with THP-1 is 5.84.

In turn, `COc1ccc2c3cc[n+](CCCc4ccccc4)c(C)c3n(Cc3cccc(Cl)c3)c2c1` showed a pIC50 in experiment [24] of 6.05.

In the case of `COc1ccc(OC)c(-c2nc(/C=C3/C(=O)N(Cc4ccccc4)c4ccc(Br)cc43)cc3c2[nH]c2ccccc23)c1`, the pIC50 in the experiment with A549, in the experiment with MCF7 [25], in the experiment with HCT-116 [15], in the experiment with HCT-15 and in the experiment on NCI-H460 [23] was 5.84 throughout.
